Measurements published in patent US20080206334A1 (priority 2005, published 2008).
Structures can show the parent of a compound that is named as a salt.

Experiments:
[1] = cited from earlier work
[2] = Excipient compatibility by DSC; assay type: physicochemical; conditions: 1:1 (w/w) mixtures with xanthan gum, chitosan, magnesium stearate, NaHCO3
Method: Samples of 5-10 mg in weight were placed in hermetically sealed DSC pans. Samples were scanned at a rate of 10° C./min, and thermograms were obtained. The thermal analyzer (DSC) was calibrated prior to use by indium. The calibration procedure was repeated many times prior to DSC runs.

[3] = administered orally; cited from earlier work

For CC(C)(C)NCC(O)c1cc(O)cc(O)c1 (stereo not drawn) [Terbutaline sulfate], the Solubility in water [1] is given as > 20 mg/mL, the “Excipient compatibility (DSC thermograms)” value [2] is given as “excipients are compatible with Terbutaline sulfate” and the Biological half-life [3] is given as “about 3.6 hrs”.
